Entries after “also recorded” stand apart in the source; their conditions may differ.
Key:
BRD4 [1] = molecular target: T1, BRD4 (Homo sapiens, UniProt O60885); test: Summary of BRD4 degradation by CURE-PRO pairs, estimated from Western Blot or WES; assay type: cell-based; design: endogenous in cells; settings: for Degradation of BRD4, combination with CRBN ligand 8066: Table 1, aryl-boronic acid BRD4 ligand + 8066; for Degradation of BRD4, combination with CRBN ligand 8047: Table 1, aryl-boronic acid BRD4 ligand + 8047; for Degradation of BRD4, combination with CRBN ligand 8046: Table 1, aryl-boronic acid BRD4 ligand + 8046; for Degradation of BRD4, combination with VHL ligand 8305: Table 3, aryl-boronic acid BRD4 ligand + 8305
Experimental: (§1) Namalwa, Ramosm HeLa, MCF7, or HT29 HCT116 cells (2.5-3×10^6) were treated for 24 hours with the indicated compounds solubilized in DMSO. The cells were washed in ice-cold PBS and were then lysed in RIPA lysis buffer (150 mM NaCl, 5 mM EDTA, 1% NP-40, 0.5% sodium deoxycholate, 0.1% SDS, 50 mM Tris, pH 8.0.) with Roche protease inhibitor complete cocktail and phosphatase inhibitors (10 mM sodium fluoride, 10 mM sodium pyrophosphate, 1 mM sodium orthovanadate and 20 mM β-glycerophosphate). The total protein concentrations were determined by Bradford Protein Assay (Pierce) and 10-20 μg of protein was loaded onto 4-15% Tris-Glycine gradient gels (Biorad). After standard gel electrophoresis, the separated proteins were transferred to PVDF membrane by wet transfer. The immunoblots were then blocked for 1 hour in 5% skim milk in TBST or 5% BSA in TBST, according to manufacturer's instructions, before an overnight incubation at 4° C. with indicated antibodies and membranes. Membranes were then incubated with the appropriate horseradish peroxidase-conjugated secondary antibodies (1:5,000 dilution) for 1 h at room temperature and the bands were visualized using the Clarity Max Western ECL Substrate (Biorad) and the ChemiDoc Imaging System (Biorad). Signal was detected with ECL Western Blotting Substrate (Pierce) and X-ray film processed with a Konica SRX-101 X-ray film processor or captured by Bio-Rad's Chemidoc Imaging system.
WES Simple analysis was performed on WES system (ProteinSimple-Biotechne) according to the manufacturer's instructions. Total protein concentrations of cell lysates were determined by the Pierce BCA kit (Thermo Fisher). 3 μL of 0.3 μg/μL of the protein lysate was loaded onto a 12- to 230-kDa WES assay plate (ProteinSimple) where 300 nL sample was withdrawn through a capillary, subjected to electrophoretic separation of proteins by size, and followed by the simultaneous, HRP-based detection of proteins using the Anti-Rabbit Detection Module (Proteinsimple: #DM-001). The electropherograms were checked then the automatic peak detection was manually corrected if it was required.
A black check mark indicates efficacy of 30% to 70% or higher protein degradation.

BRD4 [2] = molecular target: T1, BRD4; test: CURE-PRO-mediated BRD4 degradation in HeLa cells, Western blot; assay type: cell-based; design: endogenous in cells; host or cells: HeLa; settings: 24 h
Experimental: All cell lines were purchased from ATCC or DSMZ and grown at 37° C. with 5% CO2. Human HeLa cells were cultured in complete growth medium (Dulbecco's modified Eagle's medium (DMEM) supplemented with 10% FBS); MCF7 cells were cultured in complete growth medium (Dulbecco's modified Eagle's medium (DMEM) supplemented with 10% FBS and 0.01 mg/ml human recombinant insulin (Sigma Aldrich); Namalwa and Ramos cells were cultured in complete growth medium (RPMI 1640 medium supplemented with 10% FBS); HCT116 and HT29 cells were cultured in complete growth medium (McCoy's 5a Medium supplemented with 10% FBS). For cellular degradation of BRD4 studies cells were seeded in a 12-well plate at 70-80% confluency, allowed to attach overnight, and incubated with the indicated compounds for the indicated time. When indicated, a 15-minute pretreatment with 10 μM pomalidomide, 10 μM VHL298, 10 μM Nutlin3a, 1 μM MG-132 or 1 μM Carfilzomib was performed before the addition of CURE-PROs. For washout studies, after CURE-PRO treatment, media was aspirated and incubated with complete medium for the indicated time before lysis.
as §1
HeLa cells (2.5×10^6) were treated for 24 hours with the sample compounds solubilized in DMSO. Compounds were added at 1-10 μM each. Standardized protein samples were electrophoresed and imaged as described in the immunoblotting description above. FIGS. 6-18 depicts the CURE-PRO-mediated BRD4 degradation for BRD monomers (JQ1 derivatives comprising of catechol linkers), and CRBN ligands, 8048 and 8049 (pomalidomide derivatives comprising boronic acid linkers) combined in a 1:1 ratio.
HeLa cells (2.5×10^6) were treated for 24 hours with the compounds solubilized in DMSO. The compounds were added at 10 μM each. Standardized protein samples were electrophoresed and imaged as described in the immunoblotting section above. FIGS. 23-27 depicts the CURE-PRO-mediated BRD4 degradation for BRD monomers (JQ1 derivatives comprising of boronic acid linkers), and CRBN ligands, 8046, 8047 and 8066 (pomalidomide derivatives comprising diol linkers) combined in a 1:1 ratio.
HeLa cells (2.5×10^6) were treated for 24 hours with the compounds solubilized in DMSO. Compounds were added at 10 μM and 100 μM each. Standardized protein samples were electrophoresed and imaged as described in the immunoblotting section above.
HeLa cells (2.5×10^6) were treated for 24 hours with the compounds solubilized in DMSO. Compounds were added at 1 nM-1 μM each. […]

[3] = co-treated 1:1 with CRBN ligand 8046, HeLa, 10 μM each
[4] = co-treated 1:1 with CRBN ligand 8047, HeLa, 10 μM each
[5] = co-treated 1:1 with CRBN ligand 8066, HeLa, 10 μM each

Compound: COc1ccc2c(c1)C(c1ccc(Cl)cc1)=N[C@@H](CC(=O)NCCCCCNC(=O)c1ccc(B(O)O)cc1)c1nnc(C)n1-2 [BRD- E07]
- Degradation of BRD4, combination with CRBN ligand 8066 (BRD4 [1]): √ (A black check mark indicates efficacy of 30% to 70% or higher protein degradation)

Compound: COc1ccc2c(c1)C(c1ccc(Cl)cc1)=N[C@@H](CC(=O)NCCNC(=O)Cc1cccc(B(O)O)c1)c1nnc(C)n1-2 [BRD- E38]
- Degradation of BRD4, combination with CRBN ligand 8047 (BRD4 [1]): √ (A black check mark indicates efficacy of 30% to 70% or higher protein degradation)

Compound: CCNC(=O)C[C@@H]1N=C(c2ccc(Cl)cc2)c2cc(OCCOCCNC(=O)c3ccc(B(O)O)cc3)ccc2-n2c(C)nnc21 [BRD- E39]
- Degradation of BRD4, combination with CRBN ligand 8046 (BRD4 [1]): √ (A black check mark indicates efficacy of 30% to 70% or higher protein degradation)

Compound: CCNC(=O)C[C@@H]1N=C(c2ccc(OCc3ccc(B(O)O)cc3)cc2)c2cc(OC)ccc2-n2c(C)nnc21 [BRD- E54]
- Degradation of BRD4, combination with VHL ligand 8305 (BRD4 [1]): √ (A black check mark indicates efficacy of 30% to 70% or higher protein degradation)

Compound: CCNC(=O)C[C@@H]1N=C(c2ccc(Cl)cc2)c2cc(OCCOCCOCCNC(=O)c3ccc(O)c(O)c3)ccc2-n2c(C)nnc21 [BRD- N40]
- Degradation of BRD4, combination with VHL ligand 8297 (BRD4 [1]; Table 6, aromatic 1,2-diol BRD4 ligand + 8297): √ (A black check mark indicates efficacy of 30% to 70% or higher protein degradation)

Compound: COc1ccc2c(c1)C(c1ccc(Cl)cc1)=N[C@@H](CC(=O)Nc1ccc(O)c(O)c1)c1nnc(C)n1-2 [BRD- N68]
- Degradation of BRD4, combination with CRBN ligand 8048 (BRD4 [1]; Table 4, aromatic 1,2-diol BRD4 ligand + 8048): √ (A black check mark indicates efficacy of 30% to 70% or higher protein degradation)

Compound: COc1ccc2c(c1)C(c1ccc(Cl)cc1)=N[C@@H](CC(=O)NCCCNC(=O)c1cccc(B(O)O)c1)c1nnc(C)n1-2 [BRD-E4]
- BRD4 degradation (BRD4 [2]; [3]): causes degradation of BRD4; also recorded: Degradation is noted
- BRD4 degradation (BRD4 [2]; [4]): causes degradation of BRD4; also recorded: Degradation is noted
- BRD4 degradation (BRD4 [2]; [5]): causes degradation of BRD4; also recorded: Degradation is noted
- Degradation of BRD4, combination with CRBN ligand 8046 (BRD4 [1]): √ (A black check mark indicates efficacy of 30% to 70% or higher protein degradation)
- Degradation of BRD4, combination with CRBN ligand 8047 (BRD4 [1]): √ (A black check mark indicates efficacy of 30% to 70% or higher protein degradation)
- Degradation of BRD4, combination with CRBN ligand 8066 (BRD4 [1]): √ (A black check mark indicates efficacy of 30% to 70% or higher protein degradation)

Compound: COc1ccc2c(c1)C(c1ccc(Cl)cc1)=N[C@@H](CC(=O)NCCCCNC(=O)c1ccc(B(O)O)cc1)c1nnc(C)n1-2 [BRD-E5]
- BRD4 degradation (BRD4 [2]; [4]): causes degradation of BRD4; also recorded: Degradation is noted
- BRD4 degradation (BRD4 [2]; [5]): causes degradation of BRD4; also recorded: Degradation is noted
- Degradation of BRD4, combination with CRBN ligand 8047 (BRD4 [1]): √ (A black check mark indicates efficacy of 30% to 70% or higher protein degradation)
- Degradation of BRD4, combination with CRBN ligand 8066 (BRD4 [1]): √ (A black check mark indicates efficacy of 30% to 70% or higher protein degradation)

Compound: COc1ccc2c(c1)C(c1ccc(Cl)cc1)=N[C@@H](CC(=O)NCc1cccc(B(O)O)c1)c1nnc(C)n1-2 [BRD-E10]
- BRD4 degradation (BRD4 [2]; 1:1 with CRBN ligand 8046, HeLa, 10 μM and 100 μM each): only demonstrated BRD4 degradation at 100 μM
- BRD4 degradation (BRD4 [2]; 1:1 with CRBN ligand 8047, HeLa, 10 μM and 100 μM each): complete degradation at 10 μM
- Degradation of BRD4, combination with CRBN ligand 8046 (BRD4 [1]): √ (A black check mark indicates efficacy of 30% to 70% or higher protein degradation)
- Degradation of BRD4, combination with CRBN ligand 8047 (BRD4 [1]): √ (A black check mark indicates efficacy of 30% to 70% or higher protein degradation)
- Degradation of BRD4, combination with VHL ligand 8304 (BRD4 [1]; Table 3, aryl-boronic acid BRD4 ligand + 8304): √ (A black check mark indicates efficacy of 30% to 70% or higher protein degradation)

Compound: COc1ccc2c(c1)C(c1ccc(Cl)cc1)=N[C@@H](CC(=O)NCCNC(=O)Cc1ccc(B(O)O)cc1)c1nnc(C)n1-2 [BRD-E27, (4-(2-((2-(2-((4S)-6-(4-chlorophenyl)-8-methoxy-1-methyl-4H-benzo[f][1,2,4]triazolo[4,3-a][1,4]diazepin-4-yl)acetamido)ethyl)amino)-2-oxoethyl)phenyl)boronic Acid]
- BRD4 degradation (BRD4 [2]; [4]): causes degradation of BRD4
- Degradation of BRD4, combination with CRBN ligand 8047 (BRD4 [1]): √ (A black check mark indicates efficacy of 30% to 70% or higher protein degradation)

Compound: COc1ccc2c(c1)C(c1ccc(Cl)cc1)=N[C@@H](CC(=O)NCCNC(=O)/C=C/c1cccc(B(O)O)c1)c1nnc(C)n1-2 [BRD-E30, (3-((E)-3-((2-(2-((4S)-6-(4-chlorophenyl)-8-methoxy-1-methyl-4H-benzo[f][1,2,4]triazolo[4,3-a][1,4]diazepin-4-yl)acetamido)ethyl)amino)-3-oxoprop-1-en-1-yl)phenyl)boronic acid]
- Degradation of BRD4, combination with CRBN ligand 8047 (BRD4 [1]): √ (A black check mark indicates efficacy of 30% to 70% or higher protein degradation)
- Degradation of BRD4, combination with CRBN ligand 8066 (BRD4 [1]): √ (A black check mark indicates efficacy of 30% to 70% or higher protein degradation)

Compound: CCNC(=O)C[C@@H]1N=C(c2ccc(Cl)cc2)c2cc(OCCOCCOCCNC(=O)c3cccc(B(O)O)c3)ccc2-n2c(C)nnc21 [BRD-E42]
- BRD4 degradation (BRD4 [2]; [4]): causes degradation of BRD4
- Degradation of BRD4, combination with CRBN ligand 8047 (BRD4 [1]): √ (A black check mark indicates efficacy of 30% to 70% or higher protein degradation)

Compound: CCNC(=O)C[C@@H]1N=C(c2ccc(Cl)cc2)c2cc(OCCOCCOCCOCCNC(=O)c3ccc(B(O)O)cc3)ccc2-n2c(C)nnc21 [BRD-E43]
- BRD4 degradation (BRD4 [2]; [4]): causes degradation of BRD4
- BRD4 degradation (BRD4 [2]; [5]): causes degradation of BRD4; also recorded: Degradation is noted
- Degradation of BRD4, combination with CRBN ligand 8047 (BRD4 [1]): √ (A black check mark indicates efficacy of 30% to 70% or higher protein degradation)
- Degradation of BRD4, combination with CRBN ligand 8066 (BRD4 [1]): √ (A black check mark indicates efficacy of 30% to 70% or higher protein degradation)

Compound: COc1ccc2c(c1)C(c1ccc(Cl)cc1)=N[C@@H](CC(=O)NCCOCCOCCNC(=O)c1ccc(B(O)O)cc1)c1nnc(C)n1-2 [BRD-E45]
- BRD4 degradation (BRD4 [2]; [5]): causes degradation of BRD4
- Degradation of BRD4, combination with CRBN ligand 8066 (BRD4 [1]): √ (A black check mark indicates efficacy of 30% to 70% or higher protein degradation)
- Degradation of BRD4, combination with VHL ligand 8305 (BRD4 [1]): √ (A black check mark indicates efficacy of 30% to 70% or higher protein degradation)

Compound: COc1ccc2c(c1)C(c1ccc(Cl)cc1)=N[C@@H](CC(=O)Nc1ccc(B(O)O)cc1)c1nnc(C)n1-2 [BRD-E74, (4-(2-((4S)-6-(4-chlorophenyl)-8-methoxy-1-methyl-4H-benzo[f][1,2,4]triazolo[4,3-a][1,4]diazepin-4-yl)acetamido)phenyl)boronic acid]
- BRD4 degradation (BRD4 [2]; [3]): causes degradation of BRD4
- BRD4 degradation (BRD4 [2]; [4]): causes degradation of BRD4
- Degradation of BRD4, combination with CRBN ligand 8046 (BRD4 [1]): √ (A black check mark indicates efficacy of 30% to 70% or higher protein degradation)
- Degradation of BRD4, combination with MDM2 ligand 8314 (BRD4 [1]; Table 2, aryl-boronic acid BRD4 ligand + 8314): √ (A black check mark indicates efficacy of 30% to 70% or higher protein degradation)
